# Source: patent US20240342138A1, “MICROTUBULE TARGETING AGENTS” (BPGbio, Inc., priority 2023, published 2024)
# Target: T1, tubulin (Sus scrofa, UniProt P02550+P02554)
# T1 construct: purchased Cytoskeleton Inc. BK006P
# Test: In vitro tubulin polymerization assay (OD based, absorbance 340 nm)
# Format: biochemical, Porcine
# Settings: 10 μM and 20 nM; FIG. 1; N=3
# Method: The protocol followed for tubulin polymerization is according to the manufacturer's protocol. The following components were diluted as follows: • A vial of lyophilized GTP was diluted in 100 μl of sterile water and made into 10 μl aliquots and stored at −80° C. • Tubulin was diluted to 10 mg/ml in buffers+GTP as recommended, flash frozen in liquid nitrogen and stored at −80° C. • Paclitaxel was diluted to 2 mM in DMSO
# The half area 96-well plate provided by kit manufacturer was allowed to warm up to 37° C. for 30 mins in the Molecular Devices M5 plate reader. The Compound 1 and nocodazole were diluted in DMSO to a concentration of 2 mM, followed by dilution of these working stocks in the General Tubulin Buffer (GTB-provided in the kit) to a 10× the final well concentration and final well volume of 10 μl. Same was done with the 2 mM Paclitaxel stock. Once the plate was warmed up, the compounds were added in duplicates to the wells. […] The plate was placed at 37° C. in the plate reader for 3 minutes. […] The experimental setup was as follows: • Absorbance read: 340 nm • Temperature: 37° C. • Shake: 5 s at medium speed prior to first read. • Read: The absorbance was read every 1 min for 90 minutes (total 91 reads).
# The values were normalized to the first read by designating the first read as ‘0’ subtracting the value of the first read from the following reads. […]
# T1 sequence (P02550 whole entry): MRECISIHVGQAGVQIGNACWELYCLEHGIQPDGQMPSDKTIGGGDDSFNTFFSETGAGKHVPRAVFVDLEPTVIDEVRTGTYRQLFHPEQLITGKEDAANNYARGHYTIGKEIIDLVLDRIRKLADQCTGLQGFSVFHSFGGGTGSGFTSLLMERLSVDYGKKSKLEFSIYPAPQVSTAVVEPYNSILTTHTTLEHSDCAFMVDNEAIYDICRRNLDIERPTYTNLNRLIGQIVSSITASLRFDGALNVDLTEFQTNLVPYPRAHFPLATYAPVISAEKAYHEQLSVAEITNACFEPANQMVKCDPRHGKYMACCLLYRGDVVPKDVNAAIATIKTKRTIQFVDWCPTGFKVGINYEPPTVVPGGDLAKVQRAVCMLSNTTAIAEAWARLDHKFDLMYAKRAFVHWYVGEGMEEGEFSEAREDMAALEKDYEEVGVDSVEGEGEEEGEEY
# T1 sequence (P02554 whole entry): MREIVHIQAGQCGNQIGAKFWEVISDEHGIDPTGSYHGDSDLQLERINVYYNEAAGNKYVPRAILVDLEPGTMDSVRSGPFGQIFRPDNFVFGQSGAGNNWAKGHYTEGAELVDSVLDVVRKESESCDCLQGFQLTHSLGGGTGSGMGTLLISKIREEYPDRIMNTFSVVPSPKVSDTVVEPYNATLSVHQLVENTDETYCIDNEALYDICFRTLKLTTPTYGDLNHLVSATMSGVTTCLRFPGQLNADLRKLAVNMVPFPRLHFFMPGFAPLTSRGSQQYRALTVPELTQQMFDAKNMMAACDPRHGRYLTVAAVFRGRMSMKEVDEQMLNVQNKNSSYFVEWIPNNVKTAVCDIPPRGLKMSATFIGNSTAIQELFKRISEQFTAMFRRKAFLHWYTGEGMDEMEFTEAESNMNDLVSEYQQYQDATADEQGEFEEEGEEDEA
compound,measurement,value
"COc1ccccc1-c1nc(CNC(=O)c2ccccc2OC(F)F)n[nH]1 [Compound 1, 2-(difluoromethoxy)-N-[[5-(2-methoxyphenyl)-1H-1,2,4-triazol-3-yl]methyl]benzamide]","Microtubule polymerization (absorbance at 340 nm, Vmax)",inhibits microtubule polymerization
